Results as given in US20120142682A1, “ANT[…] INHIBITING BACTERIAL MONO-ADP-RIBOSYLT[…]” (UNIVERSITY OF GUELPH, priority 2010, published 2012).
Like-named read-outs stand apart in the source and are kept apart here.

Assays:
[1] = system: Saccharomyces cerevisiae cells expressing the catalytic domain of P. aeruginosa ExoA (ExoAc); assay: Yeast-based compound screen; format: cell-based; details: compound 50 μM; for Protection in Yeast: w303 strain, growth restored
[2] = system: C38 cells in the presence of 650 ng/mL of ExoA; assay: Determination of half-maximal effective concentration (EC50) in C38 cells; format: cell-based, Human; details: 96 h
Experimental: Cell viability was determined using the same method as the cytoprotection assay. The EC50 values were extrapolated from each corresponding line-of-best-fit (Sigmoidal function in Origin 6.1), and the average values reported±the standard deviation.

[3] = system: ExoA intoxicated C38 cells; format: cell-based, Human
cholix toxin = cholix toxin (Vibrio cholerae, UniProt Q5EK40); assay: biochemical; format: biochemical
WT ExoAc = WT ExoAc (Pseudomonas aeruginosa, UniProt P11439); assay: biochemical; format: binding, P. aeruginosa
[4] = 650 ng/ml ExoA (10-times LD50), NAP and V30 with 0.5% DMSO
[5] = read-out: Kd, second (lower affinity) binding constant (converted)

Sequence of WT ExoAc (P11439 430-638 limits assumed): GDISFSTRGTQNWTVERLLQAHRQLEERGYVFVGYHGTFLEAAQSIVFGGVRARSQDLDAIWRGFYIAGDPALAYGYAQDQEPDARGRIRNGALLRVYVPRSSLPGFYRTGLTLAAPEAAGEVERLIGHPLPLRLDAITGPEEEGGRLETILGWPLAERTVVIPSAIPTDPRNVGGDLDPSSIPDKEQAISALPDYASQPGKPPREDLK
Sequence of cholix toxin (Q5EK40 33-666 limits assumed): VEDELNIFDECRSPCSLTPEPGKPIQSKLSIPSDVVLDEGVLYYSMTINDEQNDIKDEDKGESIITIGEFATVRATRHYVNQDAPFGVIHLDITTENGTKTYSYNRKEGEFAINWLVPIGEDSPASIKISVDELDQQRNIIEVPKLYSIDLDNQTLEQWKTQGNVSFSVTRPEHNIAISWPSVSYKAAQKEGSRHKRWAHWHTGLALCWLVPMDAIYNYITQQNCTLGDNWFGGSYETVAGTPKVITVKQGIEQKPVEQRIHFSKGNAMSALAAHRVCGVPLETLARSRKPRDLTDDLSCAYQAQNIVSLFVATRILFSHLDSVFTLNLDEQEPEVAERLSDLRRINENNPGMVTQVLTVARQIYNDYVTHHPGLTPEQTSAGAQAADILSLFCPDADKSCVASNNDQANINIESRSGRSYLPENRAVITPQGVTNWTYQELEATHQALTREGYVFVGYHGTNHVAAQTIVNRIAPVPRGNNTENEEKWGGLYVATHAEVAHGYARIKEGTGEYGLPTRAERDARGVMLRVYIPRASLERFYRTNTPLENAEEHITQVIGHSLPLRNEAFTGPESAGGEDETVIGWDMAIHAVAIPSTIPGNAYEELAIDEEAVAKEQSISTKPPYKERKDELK

| Compound | Protection in Yeast [1] | protection of C38 cells against ExoA (in words) [3] | other results |
| --- | --- | --- | --- |
| Nc1ccc2c3c(cccc13)C(=O)NC2=O [Compound 4-NAP, reference compound] | ++ (25-50% (++)) | – | – |
| O=C1NN=C(CN2CCOCC2)c2c[nH]c3cccc1c23 [Compound P1] | − (Compounds showing less than 5% growth were scored (−)) | – | EC50 [2, 4]: 2900 ± 800 nM; protection of C38 cells from lethal action of high dose ExoA (morphology) [3]: completely protected; Ki (cholix toxin; read-out: Ki): 22 ± 4 nM; difference in affinity between the two binding sites (WT ExoAc): ~50 fold; Kd (WT ExoAc; read-out: Kd): 10 nM; Kd (WT ExoAc; [5]): 650 nM |
| CN(C)Cc1nc2cccc3c2n1CCNC3=O [Compound P4] | − (Compounds showing less than 5% growth were scored (−)) | – | EC50 [2, 4]: 12600 ± 3300 nM; IC50 (cholix toxin; read-out: IC50): 960 nM; Ki (cholix toxin; read-out: Ki): 132 ± 7 nM; Kd (WT ExoAc; read-out: Kd): 1380 ± 30 nM |
| O=C1NCCn2c(CCc3ccc(CN4CCCC4)cc3)nc3cccc1c32 [Compound P5] | − (Compounds showing less than 5% growth were scored (−)) | – | EC50 [2, 4]: 16700 ± 1900 nM; IC50 (cholix toxin; read-out: IC50): 4460 nM; Ki (cholix toxin; read-out: Ki): 582 ± 124 nM; Kd (WT ExoAc; read-out: Kd): 750 ± 10 nM |
| O=C1NCC2c3cc(S(=O)(=O)O)ccc3Oc3cccc1c32 (stereo not shown) [Compound P8] | − (Compounds showing less than 5% growth were scored (−)) | modest | IC50 (cholix toxin; read-out: IC50): 1040 ± 136 nM; Ki (cholix toxin; read-out: Ki): 136 ± 3 nM; difference in affinity between the two binding sites (WT ExoAc): ~50 fold; Kd (WT ExoAc; read-out: Kd): 160 nM; Kd (WT ExoAc; [5]): 5210 nM |
| O=c1cc(NCCNc2cc(=O)oc3ccccc23)c2ccccc2o1 [Compound V1] | − (Compounds showing less than 5% growth were scored (−)) | – | – |
| CN1CCN(c2c(N)c(=O)oc3ccccc23)CC1 [Compound V2] | − (Compounds showing less than 5% growth were scored (−)) | – | – |
| CCN(CC)CCn1c(NCc2nc3ccccc3n2Cc2ccccc2)nc2ccccc21 [Compound V3] | − (Compounds showing less than 5% growth were scored (−)) | – | – |
| O=C(NCCNc1ccnc2cc(Cl)ccc12)c1ccccc1F [Compound V4] | − (Compounds showing less than 5% growth were scored (−)) | – | – |
| O=C(CCCC(=O)Nc1ccc(F)c(Cl)c1)Nc1ccc(F)c(Cl)c1 [Compound V5] | toxic (any compound that reduced cell viability to less than 30%) | – | – |
| Nc1c(C(=O)Nc2ccc(S(N)(=O)=O)cc2)sc2nc3c(cc12)CCCC3 [Compound V6] | − (Compounds showing less than 5% growth were scored (−)) | – | – |
| O=C(Nc1c2ccccc2nc2ccccc12)c1ccc([N+](=O)[O-])cc1 [Compound V7] | toxic (any compound that reduced cell viability to less than 30%) | – | – |
| COc1ccc(Nc2nc(N3CCN(CCO)CC3)nc3ccccc23)c(OC)c1 [Compound V8] | − (Compounds showing less than 5% growth were scored (−)) | – | – |
| Nc1c(NCCCN2CCOCC2)c2ccccc2oc1=O [Compound V9] | − (Compounds showing less than 5% growth were scored (−)) | moderate activity | – |
| Cc1cccc(Cn2c(N3CCCCC3C)nc3c2c(=O)[nH]c(=O)n3C)c1 (stereo not shown) [Compound V10] | − (Compounds showing less than 5% growth were scored (−)) | Weak protection | – |
| CC1(C)C(=O)N(CC(O)Cn2cnc3ccccc32)C(=O)N1CN1C(=O)N(CC(O)Cn2cnc3ccccc32)C(=O)C1(C)C (stereo not shown) [Compound V11] | − (Compounds showing less than 5% growth were scored (−)) | Weak protection | – |
| Cn1c(=O)c2[nH]c(CN3CCc4ccccc4C3)nc2n(C)c1=O [Compound V12] | − (Compounds showing less than 5% growth were scored (−)) | moderate activity | LD50 of ExoA in the presence of compound [3]: 228 ± 12 ng/mL; increase of the LD50 of ExoA [3]: ~3 fold |
| O=C(C1CCCN(Cc2c[nH]c3ccccc23)C1)N1CCCCCC1 (stereo not shown) [Compound V13] | − (Compounds showing less than 5% growth were scored (−)) | – | – |
| Cc1[nH]c2ccccc2c1CN1CCN(c2ccccn2)CC1 [Compound V14] | − (Compounds showing less than 5% growth were scored (−)) | – | – |
| CCn1c(SCc2nc3ccccc3c(=O)[nH]2)nnc1-c1ccc(Cl)cc1 [Compound V15] | + (5-25% (+)) | moderate activity | LD50 of ExoA in the presence of compound [3]: 208 ± 41 ng/mL; protection in yeast against ExoAc (in words) [1]: weak protection |

| Compound | Protection in Yeast [1] | protection of C38 cells against ExoA (in words) [3] | other results |
| --- | --- | --- | --- |
| Cc1cc(Nc2ccc(O)cc2)c2ccccc2n1.Cl [Compound V16] | − (Compounds showing less than 5% growth were scored (−)) | Weak protection | – |
| Cn1c(=O)c2[nH]c(CNCc3ccccc3Cl)nc2n(C)c1=O [Compound V17] | − (Compounds showing less than 5% growth were scored (−)) | moderate activity | – |
| COc1ccc(NC(=O)CC2C(=O)N(c3ccc(Cl)cc3)C(=S)N2CCc2ccncc2)cc1 (stereo not shown) [Compound V18] | − (Compounds showing less than 5% growth were scored (−)) | – | – |
| Cn1c(=O)[nH]c(=O)c2c1nc(N1CCCCC1)n2CCCSc1nc2ccccc2s1 [Compound V19] | − (Compounds showing less than 5% growth were scored (−)) | – | – |
| O=C(CC1C(=O)NCCN1C(=O)CN1CCN(CCO)CC1)Nc1ccccc1 (stereo not shown) [Compound V20] | − (Compounds showing less than 5% growth were scored (−)) | – | – |
| COC(=O)c1[nH]c(C)c(C(=O)C2=C(O)C(=O)N(CCCN3CCOCC3)C2c2ccccn2)c1C (stereo not shown) [Compound V21] | − (Compounds showing less than 5% growth were scored (−)) | Weak protection | – |
| CN(C)CCNc1c(N)c(=O)oc2ccccc12 [Compound V22] | − (Compounds showing less than 5% growth were scored (−)) | Weak protection | – |
| CN1CCN(CCCNc2c(N)c(=O)oc3ccccc23)CC1 [Compound V23] | ++ (25-50% (++)) | moderate activity | LD50 of ExoA in the presence of compound [3]: 199 ± 30 ng/mL; protection in yeast against ExoAc (in words) [1]: modest protection |
| CCN(CC)CCn1c(NCc2ccc(F)cc2)nc2ccccc21.Cl.Cl [Compound V24] | − (Compounds showing less than 5% growth were scored (−)) | moderate activity | LD50 of ExoA in the presence of compound [3]: 238 ± 16 ng/mL |
| CCOC(=O)c1[nH]c(C)c(C(=O)C2=C(O)C(=O)N(CCCN3CCOCC3)C2c2cccc(F)c2)c1C (stereo not shown) [Compound V25] | − (Compounds showing less than 5% growth were scored (−)) | Weak protection | – |
| Brc1cccc(CNc2nc3ccccc3n2CCN2CCOCC2)c1 [Compound V26] | − (Compounds showing less than 5% growth were scored (−)) | Weak protection | – |
| CCc1ccc2ncc(C(=O)O)c(O)c2c1 [Compound V27] | − (Compounds showing less than 5% growth were scored (−)) | – | – |
| CCOC(=O)c1cnc2ccc(OCC)cc2c1Nc1ccc(C)cc1C [Compound V28] | toxic (any compound that reduced cell viability to less than 30%) | – | – |
| CC1CCCCN1c1nc2c(c(=O)[nH]c(=O)n2C)n1Cc1ccccc1 (stereo not shown) [Compound V29] | + (5-25% (+)) | Weak protection | protection in yeast against ExoAc (in words) [1]: weak protection |
| CC1=C(C)C2C(=O)CC(SCC(=O)NCCO)=CC2S1 (stereo not shown) [Compound V30] | − (Compounds showing less than 5% growth were scored (−)) | excellent protection | EC50 ([2]; Homo sapiens): 8800 ± 500 nM; protection of C38 cells from lethal action of high dose ExoA (morphology) [3]: completely protected; IC50 (cholix toxin): 2810 nM; Ki (cholix toxin): 367 ± 3 nM; Kd (WT ExoAc): 931 ± 74 nM |
| CC(=O)Nc1c(Nc2ccccc2)c2ccccc2oc1=O [Compound V31] | + (5-25% (+)) | Weak protection | protection in yeast against ExoAc (in words) [1]: weak protection |
| O=C1NC(=O)c2cccc3cccc1c23 [NAP, 1,8-naphthalimide, reference compound] | ++++ (Compounds found to restore growth to 50-75% (++++)) | excellent protection | EC50 ([2]; Homo sapiens): 3800 ± 900 nM; Kd (WT ExoAc): 950 ± 30 nM |
| CN(C)CC(=O)Nc1ccc2[nH]c(=O)c3ccccc3c2c1.Cl [PJ34, N-(6-oxo-5,6-dihydrophenanthridin-2-yl)-(N,N-dimethylamino)acetamide hydrochloride, reference compound] | − (Compounds showing less than 5% growth were scored (−)) | – | IC50 (cholix toxin): 280 ± 70 nM; Ki (cholix toxin): 37 ± 9 nM; Kd (WT ExoAc): 820 ± 54 nM |
| O=c1[nH]c2ccccc2c2ccccc12 [PJ97A, reference compound] | – | strong protection | LD50 of ExoA in the presence of compound [3]: > 750 ng/mL; increase of the LD50 of ExoA [3]: ~12 fold; IC50 (cholix toxin; read-out: IC50): 4670 ± 175 nM; Ki (cholix toxin; read-out: Ki): 610 ± 175 nM; Kd (WT ExoAc; read-out: Kd): 393 ± 64 nM |
